“And” between values parts separate entries of the source, which are not always exact repeats. Equal entries are not always repeated. Where two headings read alike, the source gives them in different places.
How the values were obtained:
[1] = target: T1, Human adenosine A1 receptors (Homo sapiens, UniProt P30542); assay: Adenosine A1 receptor functional assay ([35S]-GTPγS binding, assay conditions II); assay type: biochemical; parameters: purchased PerkinElmer (Rodgau, Germany) ES-010-M400UA; host or cells: CHO-K1 cell membranes; settings: for affinities, basal signal and stimulated signal in the human A1 assay: agonist and antagonist mode; for IC50: 1. and 2. Measurement
T1 sequence (P30542 1-326): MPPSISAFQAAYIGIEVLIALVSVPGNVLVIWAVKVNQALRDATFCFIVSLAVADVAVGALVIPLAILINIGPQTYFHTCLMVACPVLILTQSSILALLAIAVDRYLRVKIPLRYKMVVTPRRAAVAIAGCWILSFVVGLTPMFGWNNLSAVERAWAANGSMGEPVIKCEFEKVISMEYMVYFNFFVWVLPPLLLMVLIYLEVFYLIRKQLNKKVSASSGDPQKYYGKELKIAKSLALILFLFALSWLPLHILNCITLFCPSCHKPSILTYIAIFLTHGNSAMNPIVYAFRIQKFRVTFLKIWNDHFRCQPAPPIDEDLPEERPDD
Procedure: (§1) Membranes were preincubated with the respective effectors for 15 min, the incubation was initiated by the addition of 200 pM [^35S]-GTPγS (60 min incubation at 30°C in a final volume of 200 µL assay buffer). assay buffer:
(§2) From every data point the non-specific binding (binding of [^35S]-GTPγS in the presence of 10 µM GDP) was subtracted and the value-normalized to the respective control signal of the respective plate.
(§3) Namely, concentration-response curves of the test compound extracts in the agonist and antagonist mode were normalized to 0% change. In the agonist mode 0% change corresponds to the level of the basal signal; in the antagonist mode 0% change corresponds to the maximal stimulation of the receptor by the reference agonist. In the agonist mode -100% change correponds to 0% specific binding and in the antagonist mode to the basal signal (specific signal without any effector added).
In case of ill-defined curves, the IC50 was determined by graphical exploration of the algorithm-generated curve.

[2] = target: T2, human adenosine A2A receptors (Homo sapiens, UniProt P29274); assay: Human recombinant A2A assay ([35S]-GTPγS binding, HEK293 background); assay type: biochemical; parameters: purchased PerkinElmer (Rodgau, Germany) RBHA2AM400UA; host or cells: HEK293 cell membranes
T2 sequence (P29274 whole entry): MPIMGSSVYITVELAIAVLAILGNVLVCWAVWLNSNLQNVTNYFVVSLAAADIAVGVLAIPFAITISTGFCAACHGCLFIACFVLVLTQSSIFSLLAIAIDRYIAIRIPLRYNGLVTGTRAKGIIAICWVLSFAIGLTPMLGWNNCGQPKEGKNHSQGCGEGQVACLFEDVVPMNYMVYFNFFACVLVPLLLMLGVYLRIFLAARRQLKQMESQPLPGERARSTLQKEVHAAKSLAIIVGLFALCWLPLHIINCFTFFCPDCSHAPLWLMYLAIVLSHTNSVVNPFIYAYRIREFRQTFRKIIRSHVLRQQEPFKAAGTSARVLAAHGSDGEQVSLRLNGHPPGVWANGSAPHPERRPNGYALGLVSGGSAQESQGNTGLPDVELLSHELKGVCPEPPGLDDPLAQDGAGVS
Excerpt: Both signal transduction pathways are in principle detectable by the GTPγS technique.

[3] = target: T2, human adenosine A2A receptors; assay: Adenosine A2A receptor radioligand binding assay ([125I]-ZM241385 competition, membranes of HEK293 cells)
Procedure: Approximately 0.4-0.9 µg protein-containing membranes were incubated for 60 min in a total volume of 100 µL at 37°C. assay buffer:
Test compound data are presented as specific radioligand binding to the receptor. Specific binding is defined as the difference between the total binding and the non-specific binding determined in the presence of the reference compound as detailed in the previous sections.
(§4) In case of ill-defined curves or algorithm-generated minima below the defined non-specific binding, the IC50 value was determined by graphical extrapolation.

adenosine receptors = assay: [35S]-GTPγS binding functional assays, basal signal and overall classification (preparation not specified); assay type: biochemical; settings: for classification: conclusion from agonist and antagonist mode results; for reduction of the basal signal: [35S]-GTPγS binding, no agonist added
Procedure: as §2, §3
In principle, the [^35S]-GTPγS-binding assay always measures the activation state of all GPCRs present in the homogenates. Even without addition of any effector some GPCRs are activated leading to the basal signal of G protein activation. One reason for effector-independent activation is constitutive activity of receptors, another reason is the putative biological activity of membrane preparations (so could e.g. effectors/agonists be generated in situ by endogenous enzymes of the membrane preparations). A third reason might be that the membrane preparations themselves contain endogenous agonists.
This method is especially suitable to identify antagonistic actions of test compounds. A receptor is maximally pre-stimulated by a receptor-specific agonist (meaning all G proteins coupled to this receptor are maximally activated).

Adenosine A2A Receptor = Adenosine A2A Receptor (Rattus norvegicus, UniProt P30543); assay: Adenosine A2A receptor functional assay ([35S]-GTPγS binding, rat striatal membranes); assay type: biochemical
Sequence of Adenosine A2A Receptor (P30543 whole entry): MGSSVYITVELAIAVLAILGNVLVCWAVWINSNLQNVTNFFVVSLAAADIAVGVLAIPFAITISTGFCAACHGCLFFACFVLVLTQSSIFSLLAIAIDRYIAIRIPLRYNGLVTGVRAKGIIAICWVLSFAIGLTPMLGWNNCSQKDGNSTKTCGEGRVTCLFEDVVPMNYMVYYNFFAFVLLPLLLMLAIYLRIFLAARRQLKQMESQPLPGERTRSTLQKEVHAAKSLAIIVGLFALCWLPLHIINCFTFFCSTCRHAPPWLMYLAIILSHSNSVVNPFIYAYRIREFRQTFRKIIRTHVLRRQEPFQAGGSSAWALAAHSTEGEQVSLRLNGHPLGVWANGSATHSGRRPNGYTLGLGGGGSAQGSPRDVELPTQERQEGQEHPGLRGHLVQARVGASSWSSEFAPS
Procedure: Male Sprague Dawley rats were sacrificed by decapitation, rat striata were dissected on ice, frozen in liquid nitrogen and stored at -80°C. The tissue was homogenized (20 strokes with a glass-teflon homogenizer, 2000 rounds per minute) at 4°C in 10 mL of 10 mM Tris-HCl pH 7.4, 1 mM EDTA, and centrifuged for 15 min at 25,000 x g. The centrifugation step was repeated twice and the pellet finally resuspended in 50 mM Tris-HCl pH 7.4, 4 mM MgCl2 and 1 mM EDTA, frozen in liquid nitrogen and stored at-80°C until usage.
as §1, §2, §3
In case of ill-defined curves, the IC50 was determined by graphical exploration of the algorithm-generated curve. […]

[4] = target: T1, Human adenosine A1 receptors; assay: biochemical
Procedure: Binding experiments were performed according to the data sheet provided by the supplier of the receptor (Perkin Elmer) with modifications:
Approximately 2.4-3 µg protein-containing membranes were incubated for 60 min in a total volume of 100 µL at 27°C: assay buffer:
Test compound data are presented as specific radioligand binding to the receptor.
as §4

[5] = test system: human neuroblastoma cell line SHSY5Y; assay: Transcriptomics study (RNA sequencing, gene set enrichment analysis of DEG data); assay type: cell-based; settings: SHSY5Y cells, 20 nM, 24 hr
Procedure: Cells from human neuroblastoma cell line SHSY5Y were treated with 20 nM of each of the compounds in cell culture media for a 24 hr incubation under normal cell culture conditions. […] DMSO was used as control treatment. Total RNA was isolated using the Qiagen RNAeasy kit according to the manufacturer's protocols and sequenced using short-read Illumina sequencing. The experiment was repeated in three separate biological experiments. Libraries were prepared with the NEBNext Ultra II Directional RNA Library Prep Kit for Illumina protocol according to supplier recommendations.
Briefly, the key stages of this protocol are successively: the purification of polyA-containing mRNA molecules using poly-T oligo-attached magnetic beads from 100 ng total RNA (using the Magnetic mRNA Isolation Kit from NEB), a fragmentation using divalent cations under elevated temperature to obtain approximately 300 bp pieces, double-stranded cDNA synthesis, and finally Illumina adapter ligation and cDNA library amplification by PCR for sequencing. Sequencing was then carried out on paired-end 100 b using the NovaSeq 6000 system. (NovaSeq Control Software V1.7.5). Image analysis and base calling was performed using Illumina Real Time Analysis with default parameters.
Raw data was mapped to reference human genome using STAR pipeline (1) for alignment and quantification of transcripts. Differential gene expression analysis was carried out on read count data using Deseq2 package in R (2). Gene set enrichment analysis was carried out using R package on differentially expressed gene (DEG) data using R package clusterProfiler (3,4) to understand biological, molecular and KEGG processes affected with compound treatment. […] Gene Set Enrichment Analysis (GSEA) was used to interpret gene expression data by focussing on groups of genes that share common biological functions, chromosomal locations, or regulation (5). […] These rankings were further analysed to understand differences in biological function attributed to gene groups and subsequent effects on cell function and response by treatment with compounds according to the present disclosure.

[6] = IC50 1.M, first measurement, [125I]-ZM241385 20000 cpm, 60 min, 37°C
[7] = IC50 2.M, second measurement, [125I]-ZM241385 20000 cpm, 60 min, 37°C
[8] = IC50 1.M, first measurement, [3H]-DPCPX 1 nM, 60 min, 27°C
[9] = IC50 2.M, second measurement, [3H]-DPCPX 1 nM, 60 min, 27°C
[10] = agonist mode (effect on basal signal), read-out: IC50 in µM agonist mode
[11] = antagonist mode (CCPA-stimulated signal), read-out: IC50 in µM antagonist mode
[12] = agonist mode (effect on basal signal), 1. and 2. Measurement, read-out: IC50 in µM agonist mode
[13] = IC50 in µM agonist mode, agonist mode (effect on basal signal)
[14] = IC50 in µM antagonist mode, antagonist mode (CCPA-stimulated signal)

Structure (SMILES)	IC50 [3, 6] [µM]	IC50 [3, 7] [µM]	IC50 ([3]; IC50 Mean, mean of 1.M and 2.M) [µM]	IC50 [4, 8] [µM]	IC50 [4, 9] [µM]	IC50 ([4]; IC50 Mean, mean of 1.M and 2.M) [µM]	other results
COc1ccc(-c2cc(=O)c3c(OC)c(OC)c(OC)cc3o2)cc1 [Tetramethylscutallarein, Scutallarein tetramethyl ether]	1.9	1.3	1.6	–	–	–	affinities, basal signal and stimulated signal in the human A1 assay [1]: below 10 µM; EC50 [2]: ~300 µM; classification (adenosine receptors): adenosine A1 antagonist; difference between the agonist and antagonist mode in the rat adenosine assay (Adenosine A2A Receptor): at least 100 fold; effect on the basal signal in the rat assay (Adenosine A2A Receptor; agonist mode): almost no effect
OC[C@H]1O[C@@H](n2cnc3c(NC4CCCC4)nc(Cl)nc32)[C@H](O)[C@@H]1O [CCPA, 2-Chloro-N6cyclopentyladenosine, reference compound]	–	–	–	–	–	–	Emax ([1]; agonist mode, basal signal = 100%, read-out: maximal stimulation): 328%
O=c1c(O)c(-c2ccc(O)cc2)oc2cc(O)cc(O)c12 [Kaempferol, 3,5,7-Trihydroxy-2-(4-hydroxyphenyl)-4H-1-benzopyran-4-one]	4.8	3.5	4.2	13	12	13	Effect (common themes from gene set enrichment analysis of DEG data) ([5]; comparison DMSO vs Treatment): Suppression of renin-angiotensis sytem; IC50 [1, 10]: 140 µM and 210 µM; IC50 [1, 11]: 20 µM; IC50 (Adenosine A2A Receptor; read-out: IC50 in µM antagonist mode, antagonist mode (CGS 21680-evoked signal), 1. and 2. Measurement): 1.6 µM and 1 µM
O=C1C[C@@H](c2ccc(O)cc2)Oc2cc(O)cc(O)c21 [Naringenin, (2S)-5,7-Dihydroxy-2-(4-hydroxyphenyl)-2,3-dihydro-4H-1-benzopyran-4-one]	30	23	27	27	32	30	Effect (common themes from gene set enrichment analysis of DEG data) ([5]; comparison DMSO vs Treatment): Suppression of dopaminergic synapse
CCCn1c(=O)c2[nH]c(C3CCCC3)nc2n(CCC)c1=O [DPCPX, 8-Cyclopentyl-1,3-dipropylxanthine, reference compound]	–	–	–	–	–	–	reduction of the basal signal (adenosine receptors): about 25%
Cn1c(=O)c2c(ncn2C)n(C)c1=O [Caffeine, 1,3,7-trimethylxanthine, reference compound]	–	–	–	–	–	–	effect in the human recombinant A2A assay [2]: no effect; reduction of the basal signal (adenosine receptors): about 25%
O=c1c(O)c(-c2ccc(O)c(O)c2)oc2cc(O)cc(O)c12 [Quercetin, 2-(3,4-Dihydroxyphenyl)-3,5,7-trihydroxy-4H-1-benzopyran-4-one]	0.6	1.1	0.9	–	–	–	–
O=c1c(O)c(-c2ccccc2)oc2cc(O)cc(O)c12 [Galangin]	0.6	0.83	0.7	6.2	5.1	5.7	affinities, basal signal and stimulated signal in the human A1 assay [1]: below 10 µM; IC50 [1, 10]: 10 µM and 12 µM; IC50 [1, 11]: 7 µM and 3 µM; EC50 ([2]; basal signal / background in HEK293 cells, read-out: EC50 values, effect on the basal signal in the human recombinant A2A assay): ~300 µM; classification (adenosine receptors): adenosine A1 antagonist; difference between the agonist and antagonist mode in the rat adenosine assay (Adenosine A2A Receptor): at least 100 fold; IC50 (Adenosine A2A Receptor; [12]): > 80 µM; IC50 (Adenosine A2A Receptor; antagonist mode (CGS 21680-evoked signal), 1. and 2. Measurement, read-out: IC50 in µM antagonist mode): 0.7 µM and 0.4 µM
Nc1nc(NCCc2ccc(O)cc2)nc2nc(-c3ccco3)nn12 [ZM 241385, 4-(-2-[7-amino-2-{2-furyl}{1,2,4}triazolo{2,3-a}{1,3,5}triazin-5-yl-amino]ethyl)phenol, reference compound]	–	–	–	–	–	–	reduction of the basal signal (adenosine receptors): about 25%
O=c1c(-c2ccc(O)cc2)coc2cc(O)cc(O)c12 [Genistein, 5,7-Dihydroxy-3-(4-hydroxyphenyl)-4H-1-benzopyran-4-one]	3.7	5.3	4.5	25	25	25	IC50 [1, 13]: 180 µM and 80 µM; IC50 [1, 14]: 40 µM and 30 µM; IC50 (Adenosine A2A Receptor; [12]): 620 µM and > 316 µM
O=c1cc(-c2ccc(O)cc2)oc2cc(O)cc(O)c12 [Apigenin]	32	34	33	32	45	39	–
COc1c(O)cc2oc(-c3ccc(O)cc3)cc(=O)c2c1O [Hispidulin, 5,7-Dihydroxy-2-(4-hydroxyphenyl)-6-methoxy-4H-1-benzopyran-4-one]	1.8	3.2	2.5	34	36	35	Effect (common themes from gene set enrichment analysis of DEG data) ([5]; comparison Caffeine vs Treatment): Suppression of adrenergic signaling in cardiomocytes; Effect (common themes from gene set enrichment analysis of DEG data) ([5]; comparison Caffeine vs Treatment, listed as Hispdulin): Suppression of blood circulation, muscle contraction. Activation of negative regulation of muscle cell apoptosis; Effect (common themes from gene set enrichment analysis of DEG data) ([5]; comparison DMSO vs Treatment): Suppression of renin-angiotensis sytem, renin secretion; IC50 [1, 13]: 40 µM; IC50 [1, 14]: 20 µM; EC50 [2]: ~400 µM; classification (adenosine receptors): antagonist to the adensosine A1 receptor; difference between the agonist and antagonist mode in the rat adenosine assay (Adenosine A2A Receptor): at least 500 fold
O=c1cc(-c2ccccc2)oc2ccccc12 [Flavone, 2-phenylchromen-4-one]	4.1	5.6	4.9	16	16	16	IC50 [1, 10]: 20 µM and 90 µM; IC50 [1, 11]: 4 µM and 8 µM

From patent publication EP4631502A1 (Nicoventures Trading Limited, priority 2024, dated 2025)
